ChEMBL document CHEMBL1201862, “PubChem BioAssay data set” (2004)
The source made the active and inactive calls.

Tests used:
[1] = target: Peroxisome proliferator-activated receptor gamma/Nuclear receptor coactivator 1 (Homo sapiens, UniProt P37231); assay: (§1) TR-FRET dose response biochemical High Throughput Screening assay for agonists of the steroid receptor coactivator 1 (SRC-1) recruitment by the peroxisome proliferator-activated receptor gamma (PPAR gamma): non-selective agonists. [Related pubchem assays (depositor defined):AID1300, AID1808, AID504735, AID631]; format: protein assay
[2] = target: Peroxisome proliferator-activated receptor gamma/Nuclear receptor coactivator 3 (Homo sapiens, UniProt P37231); assay: as §1, with “3 (SRC-3)” for “1 (SRC-1)”, “assays: 1301 (Confirmation screen.), 1048 (Primary screen.)]” for “assays (depositor defined):AID1300, AID1808, AID504735, AID631]”; format: functional
[3] = target: Peroxisome proliferator-activated receptor gamma/Nuclear receptor coactivator 2 (Homo sapiens, UniProt P37231); assay: TR-FRET dose response biochemical High Throughput Screening assay for agonists of the steroid receptor coactivator 2 (SRC-2) recruitment by the peroxisome proliferator-activated receptor gamma (PPAR gamma): non-selective agonists. [Related pubchem assays: 1297, 1032 ]; format: functional
Leucine aminopeptidase = target: T1, Leucine aminopeptidase (Plasmodium falciparum 3D7, UniProt Q8IL11); assay: P. falciparum M17LAP inhibitors, primary screen, biochemical, fluorogenic H-Leu-NHMec substrate, 1536-well (AID 1619); format: functional
T1 sequence (Q8IL11 whole entry): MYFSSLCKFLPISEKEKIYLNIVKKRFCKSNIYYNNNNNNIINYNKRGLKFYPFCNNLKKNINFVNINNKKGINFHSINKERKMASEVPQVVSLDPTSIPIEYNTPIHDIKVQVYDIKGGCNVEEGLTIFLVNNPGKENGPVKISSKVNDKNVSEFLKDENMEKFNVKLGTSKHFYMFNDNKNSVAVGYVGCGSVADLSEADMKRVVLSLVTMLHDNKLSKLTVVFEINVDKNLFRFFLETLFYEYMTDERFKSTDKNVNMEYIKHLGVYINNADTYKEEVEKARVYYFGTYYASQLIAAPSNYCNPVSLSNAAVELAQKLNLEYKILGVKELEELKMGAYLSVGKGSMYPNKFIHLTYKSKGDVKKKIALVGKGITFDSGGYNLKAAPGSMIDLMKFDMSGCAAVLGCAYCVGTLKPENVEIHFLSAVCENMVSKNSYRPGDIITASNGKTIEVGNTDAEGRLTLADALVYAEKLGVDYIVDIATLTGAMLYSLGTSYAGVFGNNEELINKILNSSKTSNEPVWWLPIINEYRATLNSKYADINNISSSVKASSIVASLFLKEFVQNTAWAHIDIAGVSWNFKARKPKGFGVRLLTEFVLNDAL

[4] = target: T2, Heat shock factor protein 1 (Mus musculus, UniProt P38532); assay: inhibition of MG132-induced HSE-luciferase signal, confirmation, cell-based, NIH3T3, luminescence, dose retest (AID 2382); format: functional;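 note: NIH3T3 fibroblasts with HSF1-driven luciferase reporter stressed by proteasome inhibitor MG132; luminescence from HSF1-driven luciferase expression after 8 hours of MG132 stress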
T2 sequence (P38532 whole entry): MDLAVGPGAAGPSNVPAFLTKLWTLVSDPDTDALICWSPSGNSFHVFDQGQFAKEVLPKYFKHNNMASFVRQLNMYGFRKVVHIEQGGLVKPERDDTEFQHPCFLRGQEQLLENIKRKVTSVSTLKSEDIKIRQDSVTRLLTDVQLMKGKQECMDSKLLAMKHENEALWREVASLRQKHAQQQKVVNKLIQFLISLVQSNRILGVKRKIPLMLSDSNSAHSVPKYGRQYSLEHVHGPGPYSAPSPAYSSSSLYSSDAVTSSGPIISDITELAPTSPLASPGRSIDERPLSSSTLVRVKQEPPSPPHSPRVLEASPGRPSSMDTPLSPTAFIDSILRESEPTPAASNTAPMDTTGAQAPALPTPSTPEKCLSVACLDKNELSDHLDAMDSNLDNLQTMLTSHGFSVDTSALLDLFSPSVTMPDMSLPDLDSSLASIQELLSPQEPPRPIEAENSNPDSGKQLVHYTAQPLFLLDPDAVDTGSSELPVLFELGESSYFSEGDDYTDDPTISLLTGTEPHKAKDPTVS

[5] = target: T3, Short transient receptor potential channel 4 (Mus musculus, UniProt Q9QUQ5); assay: mouse TRPC4 channel activators, dose response, cell-based, HEK293 TRPC4/mu-opioid, Fluo-4 calcium (AID 434937); format: functional
T3 sequence (Q9QUQ5 whole entry): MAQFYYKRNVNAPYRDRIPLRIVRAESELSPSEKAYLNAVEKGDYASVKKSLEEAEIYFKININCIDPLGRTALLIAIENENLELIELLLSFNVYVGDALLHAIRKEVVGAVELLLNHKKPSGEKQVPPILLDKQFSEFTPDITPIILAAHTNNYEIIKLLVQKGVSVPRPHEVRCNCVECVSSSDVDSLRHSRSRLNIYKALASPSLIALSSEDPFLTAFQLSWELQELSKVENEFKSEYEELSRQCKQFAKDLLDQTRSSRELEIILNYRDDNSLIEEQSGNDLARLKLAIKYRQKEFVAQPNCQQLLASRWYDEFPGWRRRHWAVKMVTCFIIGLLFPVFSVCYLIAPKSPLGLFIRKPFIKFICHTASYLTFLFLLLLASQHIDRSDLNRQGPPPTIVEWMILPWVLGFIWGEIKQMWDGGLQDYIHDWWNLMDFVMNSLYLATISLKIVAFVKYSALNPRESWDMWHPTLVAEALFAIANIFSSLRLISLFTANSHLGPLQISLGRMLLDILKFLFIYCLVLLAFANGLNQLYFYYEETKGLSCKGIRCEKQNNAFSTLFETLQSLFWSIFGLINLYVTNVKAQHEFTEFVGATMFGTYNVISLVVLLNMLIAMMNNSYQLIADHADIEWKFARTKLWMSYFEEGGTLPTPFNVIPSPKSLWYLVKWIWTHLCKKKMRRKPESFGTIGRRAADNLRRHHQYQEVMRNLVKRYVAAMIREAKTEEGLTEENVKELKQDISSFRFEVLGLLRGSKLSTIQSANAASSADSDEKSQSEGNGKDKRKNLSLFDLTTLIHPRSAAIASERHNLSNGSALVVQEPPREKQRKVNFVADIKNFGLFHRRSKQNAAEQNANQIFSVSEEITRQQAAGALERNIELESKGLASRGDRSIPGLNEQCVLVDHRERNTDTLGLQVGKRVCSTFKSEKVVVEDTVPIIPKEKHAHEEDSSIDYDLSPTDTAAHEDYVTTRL

[6] = target: Beta-2 adrenergic receptor (Homo sapiens, UniProt P07550); assay: beta2AR agonists driving receptor internalization, dose response, cell-based, FAP fluorogen, flow cytometry, cherry pick 1 (AID 588763); format: functional
[7] = target: T4, RNA-binding protein pos-1 (Caenorhabditis elegans, UniProt G5EF15); assay: inhibitors of POS-1/mex-3 RNA binding, dose response, biochemical, fluorescence polarization (AID 1964);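 note: purified POS-1 fused to maltose binding protein made in E. coli; potency of compounds blocking POS-1 binding to fluorescent RNA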
T4 sequence (G5EF15 whole entry): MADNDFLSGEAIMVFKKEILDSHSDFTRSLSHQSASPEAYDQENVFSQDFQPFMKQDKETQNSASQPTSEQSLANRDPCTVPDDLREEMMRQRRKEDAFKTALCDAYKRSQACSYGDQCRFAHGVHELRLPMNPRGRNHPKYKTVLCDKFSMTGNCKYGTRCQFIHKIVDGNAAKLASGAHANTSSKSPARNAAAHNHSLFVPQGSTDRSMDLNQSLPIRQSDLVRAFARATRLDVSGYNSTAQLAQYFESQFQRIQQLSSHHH

[8] = target: T5, Zinc finger protein mex-5 (Caenorhabditis elegans, UniProt Q9XUB2); assay: MEX-5/TCR-2 RNA interaction inhibitors, dose response, biochemical, C. elegans, fluorescence polarization (AID 1960)
T5 sequence (Q9XUB2 whole entry): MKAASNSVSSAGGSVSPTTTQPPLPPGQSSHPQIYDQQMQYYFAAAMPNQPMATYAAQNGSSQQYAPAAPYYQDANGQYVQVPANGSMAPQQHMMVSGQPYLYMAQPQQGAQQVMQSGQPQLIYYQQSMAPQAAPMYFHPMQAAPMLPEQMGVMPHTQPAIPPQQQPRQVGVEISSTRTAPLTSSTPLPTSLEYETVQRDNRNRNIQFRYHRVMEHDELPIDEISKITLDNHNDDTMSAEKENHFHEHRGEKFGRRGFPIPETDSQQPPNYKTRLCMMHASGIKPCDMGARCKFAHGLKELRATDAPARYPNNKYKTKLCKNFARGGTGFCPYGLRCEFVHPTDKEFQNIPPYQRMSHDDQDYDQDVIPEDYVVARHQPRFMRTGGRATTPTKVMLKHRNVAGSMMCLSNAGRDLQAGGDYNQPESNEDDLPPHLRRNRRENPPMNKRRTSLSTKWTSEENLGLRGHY

Peroxisome proliferator-activated receptor gamma/Nuclear receptor coactivator 1, sequence (P37231 whole entry): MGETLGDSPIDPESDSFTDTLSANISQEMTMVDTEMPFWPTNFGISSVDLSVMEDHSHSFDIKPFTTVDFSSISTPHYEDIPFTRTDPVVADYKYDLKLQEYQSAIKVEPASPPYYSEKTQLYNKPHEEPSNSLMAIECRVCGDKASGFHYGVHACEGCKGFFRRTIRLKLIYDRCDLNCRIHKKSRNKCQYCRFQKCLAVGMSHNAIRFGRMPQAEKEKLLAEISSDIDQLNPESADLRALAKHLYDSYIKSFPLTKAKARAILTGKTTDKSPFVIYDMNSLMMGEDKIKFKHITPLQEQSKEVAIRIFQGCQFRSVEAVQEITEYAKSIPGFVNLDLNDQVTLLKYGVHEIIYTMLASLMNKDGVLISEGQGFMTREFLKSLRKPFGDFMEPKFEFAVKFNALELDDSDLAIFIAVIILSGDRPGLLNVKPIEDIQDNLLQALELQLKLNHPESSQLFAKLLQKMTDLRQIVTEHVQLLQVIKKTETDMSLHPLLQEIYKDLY
Peroxisome proliferator-activated receptor gamma/Nuclear receptor coactivator 1, sequence (Q15788 whole entry, further chain): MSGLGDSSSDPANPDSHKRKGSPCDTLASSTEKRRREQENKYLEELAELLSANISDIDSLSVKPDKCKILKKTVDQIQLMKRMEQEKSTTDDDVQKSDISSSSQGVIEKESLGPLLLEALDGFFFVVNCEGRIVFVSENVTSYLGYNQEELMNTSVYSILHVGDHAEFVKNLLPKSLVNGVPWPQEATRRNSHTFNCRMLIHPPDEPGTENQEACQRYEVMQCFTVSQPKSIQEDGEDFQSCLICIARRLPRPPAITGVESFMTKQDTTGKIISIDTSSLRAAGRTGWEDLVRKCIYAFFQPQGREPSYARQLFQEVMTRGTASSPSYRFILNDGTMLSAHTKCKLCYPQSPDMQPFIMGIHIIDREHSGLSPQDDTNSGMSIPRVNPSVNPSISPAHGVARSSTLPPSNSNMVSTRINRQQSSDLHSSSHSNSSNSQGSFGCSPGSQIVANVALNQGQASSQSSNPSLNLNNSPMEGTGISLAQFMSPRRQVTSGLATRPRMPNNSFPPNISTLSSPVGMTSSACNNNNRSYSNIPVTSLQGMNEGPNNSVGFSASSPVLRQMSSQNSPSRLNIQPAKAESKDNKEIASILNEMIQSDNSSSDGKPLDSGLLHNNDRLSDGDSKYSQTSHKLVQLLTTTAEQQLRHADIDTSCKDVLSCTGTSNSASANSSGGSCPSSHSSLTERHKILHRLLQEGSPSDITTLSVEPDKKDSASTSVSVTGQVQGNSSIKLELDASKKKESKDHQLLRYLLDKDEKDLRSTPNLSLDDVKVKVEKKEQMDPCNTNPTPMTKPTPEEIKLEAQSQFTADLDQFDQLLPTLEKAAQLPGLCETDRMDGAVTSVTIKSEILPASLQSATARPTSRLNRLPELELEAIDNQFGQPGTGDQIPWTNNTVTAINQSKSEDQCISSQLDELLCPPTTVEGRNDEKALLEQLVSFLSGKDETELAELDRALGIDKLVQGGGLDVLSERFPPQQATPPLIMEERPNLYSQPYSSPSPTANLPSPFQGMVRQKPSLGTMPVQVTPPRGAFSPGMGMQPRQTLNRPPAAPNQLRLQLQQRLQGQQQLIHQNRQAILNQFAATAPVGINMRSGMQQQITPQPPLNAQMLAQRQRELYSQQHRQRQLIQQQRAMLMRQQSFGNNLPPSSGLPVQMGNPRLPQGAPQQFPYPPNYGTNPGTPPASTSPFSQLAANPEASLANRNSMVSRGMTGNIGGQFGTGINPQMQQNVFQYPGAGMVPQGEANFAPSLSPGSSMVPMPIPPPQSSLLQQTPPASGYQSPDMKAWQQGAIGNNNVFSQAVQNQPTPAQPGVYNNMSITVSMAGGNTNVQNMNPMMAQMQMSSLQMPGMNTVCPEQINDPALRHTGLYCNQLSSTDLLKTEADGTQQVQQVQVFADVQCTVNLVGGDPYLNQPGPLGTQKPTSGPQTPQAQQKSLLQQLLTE
Peroxisome proliferator-activated receptor gamma/Nuclear receptor coactivator 3, sequence (P37231 whole entry): as the sequence (P37231 whole entry) above
Peroxisome proliferator-activated receptor gamma/Nuclear receptor coactivator 3, sequence (Q9Y6Q9 whole entry, further chain): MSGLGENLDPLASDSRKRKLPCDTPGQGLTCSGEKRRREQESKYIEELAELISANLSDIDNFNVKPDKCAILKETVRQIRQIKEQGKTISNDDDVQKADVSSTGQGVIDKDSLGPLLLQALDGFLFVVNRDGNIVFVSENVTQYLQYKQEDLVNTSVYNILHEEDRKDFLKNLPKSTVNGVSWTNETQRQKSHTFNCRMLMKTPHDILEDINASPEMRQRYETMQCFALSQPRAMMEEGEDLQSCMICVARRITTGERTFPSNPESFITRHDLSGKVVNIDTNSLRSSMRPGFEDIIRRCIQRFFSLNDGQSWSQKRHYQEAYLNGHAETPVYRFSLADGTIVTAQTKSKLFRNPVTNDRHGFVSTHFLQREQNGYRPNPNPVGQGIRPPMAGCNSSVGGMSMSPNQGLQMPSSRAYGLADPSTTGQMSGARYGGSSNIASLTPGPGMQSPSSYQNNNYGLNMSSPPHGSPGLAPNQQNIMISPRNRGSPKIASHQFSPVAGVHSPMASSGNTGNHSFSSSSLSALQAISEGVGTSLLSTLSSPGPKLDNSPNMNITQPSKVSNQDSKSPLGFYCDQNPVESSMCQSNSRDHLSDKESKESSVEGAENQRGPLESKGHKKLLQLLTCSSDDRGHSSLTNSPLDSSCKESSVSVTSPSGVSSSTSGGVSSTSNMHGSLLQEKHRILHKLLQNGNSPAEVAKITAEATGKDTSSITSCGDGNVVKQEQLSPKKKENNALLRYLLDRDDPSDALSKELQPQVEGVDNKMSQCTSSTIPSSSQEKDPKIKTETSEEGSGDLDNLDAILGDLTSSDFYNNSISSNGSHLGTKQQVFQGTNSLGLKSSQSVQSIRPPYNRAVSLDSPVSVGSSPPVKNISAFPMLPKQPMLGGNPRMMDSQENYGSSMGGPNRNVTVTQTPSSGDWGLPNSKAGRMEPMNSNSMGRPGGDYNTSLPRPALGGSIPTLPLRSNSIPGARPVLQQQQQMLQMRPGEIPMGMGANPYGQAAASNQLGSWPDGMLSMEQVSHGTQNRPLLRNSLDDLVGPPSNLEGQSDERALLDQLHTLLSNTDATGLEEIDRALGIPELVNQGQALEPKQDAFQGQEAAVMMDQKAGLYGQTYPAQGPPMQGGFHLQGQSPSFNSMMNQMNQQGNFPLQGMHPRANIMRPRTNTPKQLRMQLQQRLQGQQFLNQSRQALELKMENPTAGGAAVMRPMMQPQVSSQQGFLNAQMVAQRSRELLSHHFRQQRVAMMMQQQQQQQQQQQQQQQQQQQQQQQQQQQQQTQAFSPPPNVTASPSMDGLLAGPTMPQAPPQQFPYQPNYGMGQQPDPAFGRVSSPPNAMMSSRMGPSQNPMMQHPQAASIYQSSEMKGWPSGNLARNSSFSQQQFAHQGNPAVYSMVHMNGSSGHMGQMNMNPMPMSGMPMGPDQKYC
Beta-2 adrenergic receptor, sequence (P07550 whole entry, the tested form may be a part): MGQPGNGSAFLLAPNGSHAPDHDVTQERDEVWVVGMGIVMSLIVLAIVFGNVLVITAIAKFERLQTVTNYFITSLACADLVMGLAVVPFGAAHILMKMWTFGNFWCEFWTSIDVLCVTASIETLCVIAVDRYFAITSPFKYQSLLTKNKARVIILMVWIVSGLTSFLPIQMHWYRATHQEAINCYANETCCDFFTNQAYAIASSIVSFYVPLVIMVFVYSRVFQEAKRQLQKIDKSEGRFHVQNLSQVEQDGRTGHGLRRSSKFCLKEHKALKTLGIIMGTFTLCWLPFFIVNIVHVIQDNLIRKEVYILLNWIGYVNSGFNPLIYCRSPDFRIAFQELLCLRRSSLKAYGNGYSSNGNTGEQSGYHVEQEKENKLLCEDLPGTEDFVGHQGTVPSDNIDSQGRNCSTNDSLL

SMILES	EC50 [1]	EC50 [2]	EC50 [3]	other results
Cc1cccc(C(=O)NC(=S)NNC(=O)c2ccccc2Cl)c1	–	–	–	IC50 (Leucine aminopeptidase): 58 µM (active); EC50 [4]: > 195 µM (not active); EC50 [5]: 1.68 µM (active)
Cc1nc(NCC(c2ccccc2)N(C)C)c2c(C)c(C)sc2n1 (stereo not given)	–	–	–	EC50 [5]: 0.335 µM (active)
CCCCOc1cccc(C(=O)Nc2ccc(NC(=O)c3ccco3)cc2)c1	–	–	–	EC50 [6]: 0.222 µM (active)
COc1ccc(C2C(C(=O)c3ccco3)=C(O)C(=O)N2c2nnc(C)s2)cc1 (stereo not given)	19.8 µM (inactive)	> 79.4 µM (not active)	18.7 µM (not active)	EC50 [7]: 109 µM (active); EC50 [8]: 216 µM (active)
COC(=O)c1c(N=C(S)Nc2ccc(CC(=O)O)cc2)sc(C)c1C	13.3 µM (inactive)	> 79.4 µM (not active)	9.39 µM (active)	–
CCCCC(=O)Nc1ccc(C(=O)N2CCCC(C(=O)OCC)C2)cc1 (stereo not given)	–	–	–	EC50 [6]: 5.72 µM (active)

Further lines, with some results ahead:

EC50 [1]	EC50 [2]	EC50 [3]	SMILES	other results
4.03 µM (active)	> 79.4 µM (not active)	5.27 µM (active)	C=CCn1c(=S)[nH]c2scc(-c3cccs3)c2c1=O	–
> 79.4 µM (inactive)	> 79.4 µM (not active)	> 79.4 µM (not active)	CCn1c(=O)cc(SCC(=O)Nc2cccc(C)n2)c2ccccc21	–
